This is an account of results in patent US20180228897A1, “Compositions for Vapor Phase Delivery of Active Compounds, Methods of Making and Using Same, and Kits Comprising Same” (Atmovita, LLC, priority 2015, published 2018).

Common to all, as to assay type: physicochemical
The nature of data set [1]: Solubility of piracetam and pantothenic acid in stock. The conditions noted are these: glycerin/2,3 butane diol stock, organic solvent or mixture.
A short description of data set [2]: Preparation of compositions (Example 3): appearance and stability of the solution. The conditions noted are these: heated at 175° C.
Data set [3] is described as follows: Increase in solubility of active compounds in the present compositions. An excerpt: It is advantageous to take measures to increase the solubility of an active compound or active compounds within a composition that includes components that serve as excipients such that true solubilization of the compound(s) occurs and the activity of the active compounds are retained upon transition to the vapor phase. The present disclosure is based on the result that the solubility of active compounds can be increased by surprising and unexpected amounts.

Data set [4] is described as follows: Folate solubility in glycerin/2,3 butane diol stock compositions with co-solutes (incremental addition, heat gun, stirring). Here is the method: Folate. Folate and biotin are the two most difficult to dissolve B vitamins. Folate solubility enhancement was provided by addition of beta-cyclodextrin.
The solubility enhancement from mannitol/biotin alone was tested next. […] This is major improvement over most polar solvents (0.0016 g/L of water at 25° C.).
First the mannitol/biotin powder was mixed with 0.004 g of folate. This was added to the test tube followed by the liquid. It was stirred vigorously. Then it was heated with a heat gun until clear and no folate was suspended. […] All the liquid was moved to another test tube and the precipitate remained. Then folate was incrementally added (about 1 mg) and the solution was stirred, followed by heating** until it became clear. It would take at least 3 minutes of heating for it to become clear but as more folate was added, at least 4 minutes of heating were needed. This is how the original solution was formed. Over the course of several days there was no further precipitate or increase in viscosity. ** all heating was done with the yellow heat gun on the lowest setting (240° F.)
While heating and stirring the lid popped off and 0.75 ml of solution spilled out. Even accounting for folate lost in the spill, currently at least 8 mg of folate have been dissolved in 2.75 ml and the solution is completely clear. Heating the solution caused the lid to pop so it must be removed after about 1 minute and 30 seconds of heating prior to any further heating. It is also crucial for the solution to have been flipped upside down, preferably while warm. The solution must not be heated while flipped as this may cause a spill.
The original solution still has less much viscosity but also a slightly lower concentration of folate. It appears that somewhere beyond 8 mg folate/[…] of solution it becomes supersaturated, resulting in a thick gel upon settling and cooling. […] As long as supersaturation followed by settling is avoided, the solution will remain liquid. Another option is to study the effect of precipitation inhibitors or the sonicator to further boost solubility without increasing viscosity.
Testing was also done with only stock, stock+water and stock+ethanol but having both water and ethanol is crucial to the process. […] Despite having separated the liquid from the precipitate which was nearly all biotin/mannitol, the powder still played a role in improving folate solubility. […] The following composition (3 ml stock+0.25 ml water+0.25 ml ethanol+0.009 g of biotin) dissolved 11.2 mg of folate but became extremely viscous.
According to research on drug solubility there is a class of molecules known as hydrotropes (also known as chaotropes, […]). They reduce hydrophobic forces between non-polar solutes in polar solvents. One such molecule is niacinamide (vitamin B3 amide). These hydrotropes are planar and are either very polar or have nonpolar and polar sides like surfactants but shorter. This experiment was repeated with niacinamide as a cosolute and with a combination of B3 amide and Biotin. The biotin and B3 amide were added along with 4 mg of folate (and crushed together) wet into dry to the solution. The remaining folate was added incrementally along with heating and stirring. […] (2.5 ml stock+0.5 ml water+0.5 ml ethanol+0.0221 g of B3 amide) dissolved approximately 11 mg of folate and a small amount of precipitate. (2.5 ml stock+0.5 ml water+0.5 ml ethanol+0.0221 g of B3 amide+0.090 g pure biotin) dissolved approximately 11.4 mg of folate without precipitate. Unfortunately both solutions were extremely viscous after a few days.
Eventually the B3 amide and biotin cosolute solution was prepared using “reverse stock” instead of regular with the goal of lowering viscosity. The reverse stock is a solution of 3:7 mol glycerin and 2,3 butane diol. Initially this made folate precipitate so additional glycerin was added to achieve a 1:1 mol ratio of glycerin to 2,3 butane diol.

A short description of data set [5]: Trans resveratrol solubility in stock with solvents and co-solutes (incremental addition, heat gun). The conditions noted are these: solution 2 (3.5 ml pure carvone) and solution 4 (3 ml carvone+0.5 ml ethanol), without heating. As to the method:
The initial approach was to test non polar solvents and their effectiveness with ethanol. This included pure stock as a control, carvone, and combinations of those solvents with ethanol. The following solvents were prepared: Control—3.5 ml of pure stock, 1-1.75 ml of stock+1.75 ml of carvone+0.2 ml of 0.01 mol NaOH, 2-3.5 ml of pure carvone, 3-3 ml of stock+0.5 ml of ethanol, 4-3 ml of carvone+0.5 ml of ethanol.
Solution 1 became biphasic and cloudy. The control and solution 4 have approximately the same solubility of TR. […] Solvent was added until the TR was dissolved which occurred at 60 mg/ml of stock. This original solution was split into 5 test tubes of 1 ml each with about 0.06 g of TR.
The following solutions were made: 1—adding […] of carvone (equimolar with TR, 0.000263 mol of each) 2—adding 0.175 ml of ethanol 3-0.235 ml of carvone and 0.1 ml of ethanol. Solution 1 became cloudy because the carvone is immiscible with the stock. Several attempts to fix this were made using of ethanol and B3 amide as hydrotropes but it had no effect.
Next co-solutes were used along with the TR in stock solution. 0.000263 mol of the following were dissolved along with TR in 3 ml stock: 1-niacin, 2-caffeine, 3-gallic acid, 4-salicylic acid, 5-thiamine, 6-niacinamide, and 7-pantothenic acid. Two additional samples were prepared of 0.01 g biotin (8) and 0.04 g of -pyridoxine HCl (9). Each solution consisted of the stated amount of co-solute and 3 ml of stock. The following amounts of TR (which was added incrementally (30-40 mg) and heated for 3-4 minutes by heat gun) created the following:
To conduct further testing 0.5 ml of ethanol was added to the solutions with niacin, biotin, thiamine, and salicylic acid. The successful B3 amide solution was split into two solutions of (1.625 and 1.375 ml) with 0.25 ml of ethanol being added to the 1.375 ml solution. The results were as follows:
There was also testing with multiple solutes in 3 ml of stock:
Currently piperazine hexahydrate is being tested as it is another hydrotrope. […] It may work better with other co-solutes or ethanol.

A short description of data set [6]: Folate solubility in glycerin/2,3 butane diol stock compositions with co-solutes (incremental addition, heat gun, stirring). The conditions noted are these: 2.5 ml stock+0.15 ml water+0.15 ml ethanol+0.01135 g beta-cyclodextrin+0.0182 g biotin/mannitol+0.00441 folate, without heating.

What is called solubility is the concentration that dissolves in the medium under given conditions.

Values after ≈ are worked out from the molar mass of the structure shown. Where only a bound is given, the exact number is not on record here.

Turning to `NC(=O)CN1CCCC1=O` [Piracetam, piracetam], the solubility in data set [1] was 36.5 mg/mL (≈ 257 mM). The appearance of composition entry in data set [2] (0.2 grams piracetam in 1.5 ml stock, 2.0 ml fruit flavored vodka, 0.1 ml flavored glycerin) is listed as “clear solution with flavor”.

For the compound `Nc1nc2ncc(CNc3ccc(C(=O)N[C@@H](CCC(=O)O)C(=O)O)cc3)nc2c(=O)[nH]1` [folate, folic acid], the increase in solubility in data set [3] is given as ≤ 15,000%. Also, the “amount of folate dissolved” value is listed as 9 mg in data set [4] (0.0221 g B3 amide, 0.0047 mg biotin, 3.5 ml equimolar glycerin and 2,3 butane diol, 0.5 ml water, 0.5 ml ethanol); “approximately 11.4 mg” in data set [4] (2.5 ml stock+0.5 ml water+0.5 ml ethanol+0.0221 g B3 amide+0.090 g pure biotin, without precipitate); “approximately 11 mg” in data set [4] (2.5 ml stock+0.5 ml water+0.5 ml ethanol+0.0221 g B3 amide, small amount of precipitate); 11.2 mg in data set [4] (3 ml stock+0.25 ml water+0.25 ml ethanol+0.009 g biotin); “approximately 0.008 g” in data set [4] (3 ml stock+0.25 ml water+0.25 ml ethanol+0.0182 g biotin/mannitol); under 1.6 mg in data set [4] (liquid only part of the same solution, no mannitol/biotin powder). Moreover, in data set [4] (repeat experiment, in 2.75 ml of the biotin/mannitol solution, completely clear), the “amount of folate dissolved” value is given as “at least 8 mg”. Moreover, the “concentration beyond which solution becomes supersaturated (thick gel on settling and cooling)” value in data set [4] (stock+water+ethanol+biotin/mannitol solution) is listed as > 8 mg folate/3.5 ml of solution. The “dissolution in carvone solvents” value in data set [5] was “easily dissolved”. For the same compound, in data set [2] (8 mg folic acid, 22.1 mg nicotinamide, 4.7 mg biotin in 3.5 ml (0.5 mol glycerin/0.5 mol propylene glycol), 0.5 ml water, 0.5 ml ethanol, flavors), the appearance of composition result is listed as “clear solution with flavor”. Further, the appearance of solution result in data set [6] is listed as “clear with some orange (folate) precipitate on the bottom of the vial”.
